Measurements reported in US8461160B2, “Dihydropyrimidinones” (Hoffmann-La Roche, Inc., priority 2009, dated 2013).

Each compound was assayed against T1, BACE2 (Homo sapiens, UniProt Q9Y5Z0) (assay: Fluorescent-peptide cleavage assay for BACE2 inhibition). Settings: BACE2 enzyme ectodomain, fluorescent peptide WS EVNLD AEFRC-MR121, assay buffer pH 4.5, room temperature.
T1 construct: BACE2 enzyme ectodomain (derived from plasmid “pET17b-T7-hu proBACE2”) was prepared as described in Ostermann et al; T7 tag (N); made in house
T1 sequence (Q9Y5Z0 21-473 limits assumed): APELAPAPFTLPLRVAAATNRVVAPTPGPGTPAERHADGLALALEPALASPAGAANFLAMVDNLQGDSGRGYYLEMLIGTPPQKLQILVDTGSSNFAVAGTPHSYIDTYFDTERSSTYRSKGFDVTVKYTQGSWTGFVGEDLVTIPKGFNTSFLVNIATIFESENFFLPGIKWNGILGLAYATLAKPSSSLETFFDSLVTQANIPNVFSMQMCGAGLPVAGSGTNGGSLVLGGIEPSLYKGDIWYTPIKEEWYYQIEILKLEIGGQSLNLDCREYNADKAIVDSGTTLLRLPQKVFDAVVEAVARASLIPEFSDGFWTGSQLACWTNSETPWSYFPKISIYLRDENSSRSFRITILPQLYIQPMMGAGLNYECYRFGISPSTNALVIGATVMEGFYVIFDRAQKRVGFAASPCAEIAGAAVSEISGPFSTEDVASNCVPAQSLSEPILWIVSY
Format: biochemical
Description: Fluorescent-Peptide Cleavage Assay for BACE2 Inhibition
The pro-enzyme was stored at 4° C. at a concentration of 70 μg/ml.
A fluorescent peptide with the amino acid sequence WS EVNLD AEFRC-MR121 was synthesised and a stock solution of 1.5 mM in DMSO prepared and stored at −20° C. MR121 is a fluorophore with an excitation wavelength of 630 nm and emission wavelength of 695 nm. The MR121 fluorescence is quenched by the N-terminal tryptophan until the peptide is cleaved by BACE2.
Assays were all made in a Corning 384-well black polystyrene non-binding surface microtitre plate with clear flat bottom and using a Plate:Vision (Perkin Elmer) fluorescence reader. To perform the assay an 80 nM solution of BACE2 was prepared in assay buffer (assay buffer is 100 mM Na-acetate; 20 mM EDTA; 0.05% BSA; pH 4.5) and incubated at room temperature for 1 hour to activate the enzyme. 39 μl of the activated BACE2 was placed in each assay well, followed by 1 μl compound to be tested at an appropriate concentration in 100% DMSO. The plate was then mixed and incubated for 10 minutes at room temperature.
The assay readout is the rate of change of fluorescence intensity giving a relative measure of BACE2 activity. Small values correspond to high inhibition and larger values to low inhibition. […] IC50 values were determined using these assay values generated for a range of inhibitor concentrations and the curve fitting software XLfit (IDBS) using the Sigmoidal Dose-Response Model.
Work on `Cc1ccc(C(=O)Nc2cccc([C@]3(C)CC(=O)N(C)C(N)=N3)c2)s1` [Example 1, 5-Methyl-thiophene-2-carboxylic acid [3-((S)-2-amino-1,4-dimethyl-6-oxo-1,4,5,6-tetrahydro-pyrimidin-4-yl)-phenyl]-amide] yielded an IC50 of 13 nM.
For `CN1C(=O)C[C@@](C)(c2cccc(NC(=O)c3ccc(Cl)s3)c2)N=C1N` [Example 2, 5-Chloro-thiophene-2-carboxylic acid [3-((S)-2-amino-1,4-dimethyl-6-oxo-1,4,5,6-tetrahydro-pyrimidin-4-yl)-phenyl]amide], the IC50 was 14 nM.
Work on `Cc1cc(C(=O)Nc2cccc([C@]3(C)CC(=O)N(C)C(N)=N3)c2)c(C)s1` [Example 3, 2,5-Dimethyl-thiophene-3-carboxylic acid [3-((S)-2-amino-1,4-dimethyl-6-oxo-1,4,5,6-tetrahydro-pyrimidin-4-yl)-phenyl]amide] yielded an IC50 of 86 nM.
`Cc1nc(C(=O)Nc2cccc([C@]3(C)CC(=O)N(C)C(N)=N3)c2)c(C)o1` [Example 4, 2,5-Dimethyl-oxazole-4-carboxylic acid [3-((S)-2-amino-1,4-dimethyl-6-oxo-1,4,5,6-tetrahydro-pyrimidin-4-yl)-phenyl]amide] gave an IC50 of 98 nM.
In the case of `Cc1nc(C)c(C(=O)Nc2cccc([C@]3(C)CC(=O)N(C)C(N)=N3)c2)o1` [Example 5, 2,4-Dimethyl-oxazole-5-carboxylic acid [3-((S)-2-amino-1,4-dimethyl-6-oxo-1,4,5,6-tetrahydro-pyrimidin-4-yl)-phenyl]amide], the IC50 is reported as 121 nM.
Work on `Cc1cc(C(=O)Nc2cccc([C@]3(C)CC(=O)N(C)C(N)=N3)c2)on1` [Example 6, 3-Methyl-isoxazole-5-carboxylic acid [3-((S)-2-amino-1,4-dimethyl-6-oxo-1,4,5,6-tetrahydro-pyrimidin-4-yl)-phenyl]amide] yielded an IC50 of 307 nM.
`Cc1cc(C(=O)Nc2cccc([C@]3(C)CC(=O)N(C)C(N)=N3)c2)nn1C` [Example 7, 1,5-Dimethyl-1H-pyrazole-3-carboxylic acid [3-((S)-2-amino-1,4-dimethyl-6-oxo-1,4,5,6-tetrahydro-pyrimidin-4-yl)-phenyl]amide] was tested, and the IC50 was 1010 nM.
Work on `Cc1cc(C(=O)Nc2cccc([C@]3(C)CC(=O)N(C)C(N)=N3)c2)n(C)n1` [Example 8, 2,5-Dimethyl-2H-pyrazole-3-carboxylic acid [3-((S)-2-amino-1,4-dimethyl-6-oxo-1,4,5,6-tetrahydro-pyrimidin-4-yl)-phenyl]amide] yielded an IC50 of 126 nM.
Compound `CN1C(=O)C[C@@](C)(c2cccc(NC(=O)c3cn4ccccc4n3)c2)N=C1N` [Example 9, Imidazo[1,2-a]pyridine-2-carboxylic acid [3-((S)-2-amino-1,4-dimethyl-6-oxo-1,4,5,6-tetrahydro-pyrimidin-4-yl)-phenyl]amide] has an IC50 of 110 nM.
`CN1C(=O)C[C@@](C)(c2cccc(NC(=O)c3ccc(Cl)cn3)c2)N=C1N` [Example 10, 5-Chloro-pyridine-2-carboxylic acid [3-((S)-2-amino-1,4-dimethyl-6-oxo-1,4,5,6-tetrahydro-pyrimidin-4-yl)-phenyl]amide] showed an IC50 of 7 nM.
`CN1C(=O)C[C@@](C)(c2cccc(NC(=O)c3ccc(C(F)(F)F)cn3)c2)N=C1N` [Example 11, 5-Trifluoromethyl-pyridine-2-carboxylic acid [3-((S)-2-amino-1,4-dimethyl-6-oxo-1,4,5,6-tetrahydro-pyrimidin-4-yl)-phenyl]amide] was tested, and the IC50 was 28 nM.
In the case of `Cc1ccc(C(=O)Nc2cccc([C@]3(C)CC(=O)N(C)C(N)=N3)c2)nc1` [Example 12, 5-Methyl-pyridine-2-carboxylic acid [3-((S)-2-amino-1,4-dimethyl-6-oxo-1,4,5,6-tetrahydro-pyrimidin-4-yl)-phenyl]amide], the IC50 is reported as 37 nM.
`CN1C(=O)C[C@@](C)(c2cccc(NC(=O)c3ccccn3)c2)N=C1N` [Example 13, Pyridine-2-carboxylic acid [3-((S)-2-amino-1,4-dimethyl-6-oxo-1,4,5,6-tetrahydro-pyrimidin-4-yl)-phenyl]-amide] showed an IC50 of 9 nM.
Work on `COc1ccc(C(=O)Nc2cccc([C@]3(C)CC(=O)N(C)C(N)=N3)c2)nc1` [Example 14, 5-Methoxy-pyridine-2-carboxylic acid [3-((S)-2-amino-1,4-dimethyl-6-oxo-1,4,5,6-tetrahydro-pyrimidin-4-yl)-phenyl]-amide] yielded an IC50 of 25 nM.
Work on `CN1C(=O)C[C@@](C)(c2cccc(NC(=O)c3ccc(C#N)cn3)c2)N=C1N` [Example 15, 5-Cyano-pyridine-2-carboxylic acid [3-((S)-2-amino-1,4-dimethyl-6-oxo-1,4,5,6-tetrahydro-pyrimidin-4-yl)-phenyl]amide] yielded an IC50 of 10 nM.
Compound `CN1C(=O)C[C@@](C)(c2cccc(NC(=O)c3ccc(CO)cn3)c2)N=C1N` [Example 16, 5-Hydroxymethyl-pyridine-2-carboxylic acid [3-((S)-2-amino-1,4-dimethyl-6-oxo-1,4,5,6-tetrahydro-pyrimidin-4-yl)-phenyl]amide] has an IC50 of 458 nM.
Compound `Cc1ccc(C(=O)Nc2cccc([C@]3(C)CC(=O)N(C)C(N)=N3)c2)cc1` [Example 17, N-[3-((S)-2-Amino-1,4-dimethyl-6-oxo-1,4,5,6-tetrahydro-pyrimidin-4-yl)-phenyl]-4-methyl-benzamide] has an IC50 of 120 nM.
Compound `CN1C(=O)C[C@@](C)(c2cccc(NC(=O)c3ccc(Cl)cc3)c2)N=C1N` [Example 18, N-[3-((S)-2-Amino-1,4-dimethyl-6-oxo-1,4,5,6-tetrahydro-pyrimidin-4-yl)-phenyl]-4-chloro-benzamide] has an IC50 of 50 nM.
Compound `CN1C(=O)C[C@@](C)(c2cccc(NC(=O)c3ccc(Cl)nc3)c2)N=C1N` [Example 19, N-[3-((S)-2-Amino-1,4-dimethyl-6-oxo-1,4,5,6-tetrahydro-pyrimidin-4-yl)-phenyl]-6-chloro-nicotinamide] has an IC50 of 549 nM.
Work on `CN1C(=O)C[C@@](C)(c2cccc(NC(=O)c3ncc(Cl)cn3)c2)N=C1N` [Example 20, 5-Chloro-pyrimidine-2-carboxylic acid [3-((S)-2-amino-1,4-dimethyl-6-oxo-1,4,5,6-tetrahydro-pyrimidin-4-yl)-phenyl]amide] yielded an IC50 of 6 nM.
In the case of `CN1C(=O)C[C@@](C)(c2cccc(NC(=O)c3ccc(=O)n(C)n3)c2)N=C1N` [Example 21, 1-Methyl-6-oxo-1,6-dihydro-pyridazine-3-carboxylic acid [3-((S)-2-amino-1,4-dimethyl-6-oxo-1,4,5,6-tetrahydro-pyrimidin-4-yl)-phenyl]amide], the IC50 is reported as 4200 nM.
Compound `Cc1cnc(C(=O)Nc2cccc([C@]3(C)CC(=O)N(C)C(N)=N3)c2)cn1` [Example 22, 5-Methyl-pyrazine-2-carboxylic acid [3-((S)-2-amino-1,4-dimethyl-6-oxo-1,4,5,6-tetrahydro-pyrimidin-4-yl)-phenyl]amide] has an IC50 of 123 nM.
`CN1C(=O)C[C@@](C)(c2cccc(NC(=O)c3ccc(=O)[nH]n3)c2)N=C1N` [Example 23, 6-Oxo-1,6-dihydro-pyridazine-3-carboxylic acid [3-((S)-2-amino-1,4-dimethyl-6-oxo-1,4,5,6-tetrahydro-pyrimidin-4-yl)-phenyl]amide] was tested, and the IC50 was 58 nM.
`Cc1cncc(C(=O)Nc2cccc([C@]3(C)CC(=O)N(C)C(N)=N3)c2)n1` [Example 24, 6-Methyl-pyrazine-2-carboxylic acid [3-((S)-2-amino-1,4-dimethyl-6-oxo-1,4,5,6-tetrahydro-pyrimidin-4-yl)-phenyl]amide] was tested, and the IC50 was 217 nM.
With `CN1C(=O)C[C@@](C)(c2cccc(NC(=O)c3cnc(Cl)cn3)c2)N=C1N` [Example 25, 5-Chloro-pyrazine-2-carboxylic acid [3-((S)-2-amino-1,4-dimethyl-6-oxo-1,4,5,6-tetrahydro-pyrimidin-4-yl)-phenyl]-amide] the IC50 was 10 nM.
With `CN1C(=O)C[C@@](C)(c2cccc(NC(=O)c3ccncc3)c2)N=C1N` [Example 26, N-[3-((S)-2-Amino-1,4-dimethyl-6-oxo-1,4,5,6-tetrahydro-pyrimidin-4-yl)-phenyl]-isonicotinamide] the IC50 was 960 nM.
Compound `CN1C(=O)C[C@@](C)(c2cccc(NC(=O)c3ccc(F)cn3)c2)N=C1N` [Example 27, 5-Fluoro-pyridine-2-carboxylic acid [3-((S)-2-amino-1,4-dimethyl-6-oxo-1,4,5,6-tetrahydro-pyrimidin-4-yl)-phenyl]amide] has an IC50 of 18 nM.
